Laboratory results: BindingDB's records for doi:10.1021/jm801503n (Burnham Institute For Medical Research, 2009)

Legend:
[1] = molecular target: T1, Mitogen-activated protein kinase 8 (Homo sapiens, UniProt P45983); test: In Vitro Kinase Assay (LanthaScreen Kinase Assay)
Description: Compounds were tested for their ability to inhibit JNK1 phosphorylation of ATF2 in the Time-Resolved Fluorescence Resonance Energy Transfer (TR-FRET) based LanthaScreen kinase assay (Invitrogen). The signal was measured at 520/495 nm emission ratio on a fluorescence plate reader (Victor 2, Perkin-Elmer).

[2] = molecular target: T1, Mitogen-activated protein kinase 8; test: DELFIA Assay (Dissociation Enhanced Lanthanide Fluoro-Immuno Assay)

T1 sequence (P45983 whole entry): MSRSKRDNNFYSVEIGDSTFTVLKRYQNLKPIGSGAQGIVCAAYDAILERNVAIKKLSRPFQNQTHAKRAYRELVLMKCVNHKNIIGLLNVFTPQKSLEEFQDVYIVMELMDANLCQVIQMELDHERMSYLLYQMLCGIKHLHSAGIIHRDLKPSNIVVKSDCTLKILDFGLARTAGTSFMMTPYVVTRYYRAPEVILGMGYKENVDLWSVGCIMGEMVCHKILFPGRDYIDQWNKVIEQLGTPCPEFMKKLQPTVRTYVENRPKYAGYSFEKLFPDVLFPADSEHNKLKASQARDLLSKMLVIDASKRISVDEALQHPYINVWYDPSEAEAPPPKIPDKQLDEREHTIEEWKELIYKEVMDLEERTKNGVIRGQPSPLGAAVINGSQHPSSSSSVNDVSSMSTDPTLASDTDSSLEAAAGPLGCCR

IC50 [1] [µM] | IC50 [2] [nM] | IC50 ([2]; pH 7.8, 0 °C) [nM] | Compound
 | 1000 | 43 | COc1ccc(-n2c(Sc3ncc([N+](=O)[O-])s3)n[nH]c2=O)cc1OC [triazole, 3f]
 | 2000 | 130 | O=c1[nH]nc(Sc2ncc([N+](=O)[O-])s2)n1-c1ccc(OC(F)(F)F)cc1 [triazole, 3i]
> 100 |  |  | Fc1ccc(CSc2nnc(SCc3ccc(F)cc3)s2)cc1 [dithioether 1,3,4-thiadiazole, 8b]
84 |  |  | O=C(Nc1nnc(Sc2ncc([N+](=O)[O-])s2)s1)c1ccc(F)cc1 [2-amino-1,3,4-thiadiazole, 10]
 | 2700 | 48 | O=[N+]([O-])c1cnc(Sc2nnc(O)n2-c2cccc3ccccc23)s1 [triazole, 3g]
 | 2400 | 85 | COc1ccc(OC)c(-n2c(Sc3ncc([N+](=O)[O-])s3)n[nH]c2=O)c1 [triazole, 3h]
84 | 100 |  | O=C(O)c1cnc(Sc2nnc(Sc3ncc(C(=O)O)s3)s2)s1 [dithioether 1,3,4-thiadiazole, 8g]
 | 2000 | 83 | Cn1cccc1-c1nnc(Sc2ncc([N+](=O)[O-])s2)n1-c1ccc(Cl)cc1Cl [triazole, 7b]
 | 16000 | 118 | COc1cccc(-n2c(O)nnc2Sc2ncc([N+](=O)[O-])s2)c1 [triazole, 3m]
 | 25000 | 56 | O=[N+]([O-])c1cnc(Sc2nnc(O)n2C2CCCCC2)s1 [triazole, 3q]
 | 84000 | 626 | O=c1[nH]nc(Sc2ncc([N+](=O)[O-])s2)n1-c1cccc(F)c1 [triazole, 3l]
 | 6600 |  | O=[N+]([O-])c1cnc(Sc2nnc(O)n2-c2ccc(F)c(F)c2)s1 [triazole, 3k]
 | 3100 | 122 | O=[N+]([O-])c1cnc(Sc2nnc(-c3ccncc3)n2-c2ccccc2)s1 [triazole, 7f]

The remaining lines, values behind:

Compound | IC50 [1] [µM] | IC50 [2] [nM] | IC50 ([2]; pH 7.8, 0 °C) [nM]
O=[N+]([O-])c1ccc(CSc2nnc(SCc3ccc([N+](=O)[O-])cc3)s2)cc1 [dithioether 1,3,4-thiadiazole, 8e] | > 100 |  | 
O=[N+]([O-])c1cnc(Sc2nnc(O)n2-c2cccc(C(F)(F)F)c2)s1 [triazole, 3o] |  | 2900 | 160
COc1ccc(CSc2nnc(SCc3ccc(OC)cc3)s2)cc1 [dithioether 1,3,4-thiadiazole, 8c] | > 100 |  | 
O=c1[nH]nc(Sc2ncc([N+](=O)[O-])s2)n1-c1ccc(F)cc1 [triazole, 3c] |  | 1800 | 225
COc1cc(OC)cc(-n2c(Sc3ncc([N+](=O)[O-])s3)n[nH]c2=O)c1 [triazole, 3e] |  | 4300 | 105
O=[N+]([O-])c1cnc(Sc2nnc(Sc3ncc([N+](=O)[O-])s3)s2)s1 [dithioether 1,3,4-thiadiazole, 8f] | 0.8 | 187 | 
CC(C)(C)c1ccc(-n2c(O)nnc2Sc2ncc([N+](=O)[O-])s2)cc1 [triazole, 3a] |  | 39000 | 95
O=[N+]([O-])c1cnc(Sc2nnc(O)n2-c2ccc(C(F)(F)F)cc2)s1 [triazole, 3p] |  | 3000 | 75
c1ccc(CSc2nnc(SCc3ccccc3)s2)cc1 [dithioether 1,3,4-thiadiazole, 8a] | > 100 |  | 
O=c1[nH]nc(Sc2ncc([N+](=O)[O-])s2)n1-c1ccc([N+](=O)[O-])cc1 [triazole, 3j] |  | 400 | 86
O=[N+]([O-])c1cnc(Sc2nnc(-c3cccc4ccccc34)n2Cc2ccco2)s1 [triazole, 7d] |  | 13600 | 57
O=[N+]([O-])c1cccc(CSc2nnc(SCc3cccc([N+](=O)[O-])c3)s2)c1 [dithioether 1,3,4-thiadiazole, 8d] | > 100 |  | 
Cn1c(Cc2nc(-c3cnccn3)[n-][o+]2)nnc1Sc1ncc([N+](=O)[O-])s1 [triazole, 7g] |  | 100000 | 131
Nc1nnc(Sc2ncc([N+](=O)[O-])s2)s1 [2-amino-1,3,4-thiadiazole, 9] | 0.7 | 239 | 
